# Counter-ions that a name gives are not always drawn.
# Target: T1, full-length human PRMT1 isoform 1 (GST-tagged) (Homo sapiens, UniProt Q99873)
# T1 construct: GST-tagged PRMT1 was eluted with 50 mM Tris, 2 mM glutathione, pH 7.8, dialysed in buffer A and concentrated; made in house; host or cells: High Five insect cells (baculovirus)
# Assay: PRMT1 biochemical assay (3H-SAM Flashplate, histone H4 36-50 peptide)
# Details: 0.5 nM PRMT1, 30 min preincubation, 20 nM peptide
# From the text: S-adenosylmethionine (SAM), S-adenosylhomocysteine (SAH), bicine, Tween20, dimethylsulfoxide (DMSO), bovine skin gelatin (BSG), and Tris(2-carboxyethyl)phosphine hydrochloride solution (TCEP) were purchased from Sigma-Aldrich at the highest level of purity possible. ^3H-SAM was purchase from American Radiolabeled Chemicals with a specific activity of 80 Ci/mmol. 384-well streptavidin Flashplates were purchased from PerkinElmer.
# Peptide representative of human histone H4 residues 36-50 was synthesized with an N-terminal linker-affinity tag motif and a C-terminal amide cap by 21st Century Biochemicals. The peptide was purified by high-performance liquid chromatography (HPLC) to greater than 95% purity and confirmed by liquid chromatography mass spectrometry (LC-MS). The sequence was Biot-Ahx-[…]-amide (SEQ ID NO.:1).
# Full-length human PRMT1 isoform 1 (NM_001536.5) transcript clone was amplified from an HEK 293 cDNA library, incorporating flanking 5′ sequence encoding a FLAG tag ([…]) (SEQ ID NO.:2) fused directly to Met 1 of PRMT1. The amplified gene was subcloned into pFastBacI (Life Technologies) modified to encode an N-terminal GST tag and a TEV cleavage sequence
# Recombinant baculovirus were generated according to Bac-to-Bac kit instructions (Life Technologies). Protein over-expression was accomplished by infecting exponentially growing High Five insect cell culture at 1.5×10^6 cell/ml with 1:100 ratio of virus. Infections were carried out at 27° C. for 48 hours, harvested by centrifugation, and stored at −80° C. for purification.
# GST-tagged PRMT1 was eluted with 50 mM Tris, 2 mM glutathione, pH 7.8, dialysed in buffer A and concentrated to 1 mg/mL. The purity of recovered protein was 73%. Reference: Wasilko, D. J. and S. E. Lee: “TIPS: titerless infected-cells preservation and scale-up” Bioprocess J., 5 (2006), pp. 29-32.
# General Procedure for PRMT1 Enzyme Assays on Peptide Substrates.
# The assays were all performed in a buffer consisting of 20 mM Bicine (pH=7.6), 1 mM TCEP, 0.005% BSG, and 0.002% Tween 20, prepared on the day of use. Compounds in 100% DMSO (1 ul) were spotted into a polypropylene 384-well V-bottom plates (Greiner) using a Platemate Plus outfitted with a 384-channel head (Thermo Scientific). DMSO (1 ul) was added to Columns 11, 12, 23, 24, rows A-H for the maximum signal control and 1 ul of SAH, a known product and inhibitor of PRMT1, was added to columns 11, 12, 23, 24, rows I-P for the minimum signal control. A cocktail (40 ul) containing the PRMT1 enzyme was added by Multidrop Combi (Thermo-Fisher). The compounds were allowed to incubate with PRMT1 for 30 min at room temperature, then a cocktail (10 ul) containing SAM and peptide was added to initiate the reaction (final volume=51 ul). The final concentrations of the components were as follows: PRMT1 was 0.5 nM, ^3H-SAM was 200 nM, non-radiolabeled SAM was 1.5 uM, peptide was 20 nM, SAH in the minimum signal control wells was 1 mM, and the DMSO concentration was 2%. The assays were stopped by the addition of non-radiolabeled SAM (10 ul) to a final concentration of 300 uM, which dilutes the ^3H-SAM to a level where its incorporation into the peptide substrate is no longer detectable. 50 ul of the reaction in the 384-well polypropylene plate was then transferred to a 384-well Flashplate and the biotinylated peptides were allowed to bind to the streptavidin surface for at least 1 hour before being washed once with 0.1% Tween20 in a Biotek ELx405 plate washer. The plates were then read in a PerkinElmer TopCount plate reader to measure the quantity of ^3H-labeled peptide bound to the Flashplate surface, measured as disintegrations per minute (dpm) or alternatively, referred to as counts per minute (cpm).
# Where dpm=disintegrations per minute, cmpd=signal in assay well, and min and max are the respective minimum and maximum signal controls. […]
# T1 sequence (Q99873 with tags, fused parts or gaps): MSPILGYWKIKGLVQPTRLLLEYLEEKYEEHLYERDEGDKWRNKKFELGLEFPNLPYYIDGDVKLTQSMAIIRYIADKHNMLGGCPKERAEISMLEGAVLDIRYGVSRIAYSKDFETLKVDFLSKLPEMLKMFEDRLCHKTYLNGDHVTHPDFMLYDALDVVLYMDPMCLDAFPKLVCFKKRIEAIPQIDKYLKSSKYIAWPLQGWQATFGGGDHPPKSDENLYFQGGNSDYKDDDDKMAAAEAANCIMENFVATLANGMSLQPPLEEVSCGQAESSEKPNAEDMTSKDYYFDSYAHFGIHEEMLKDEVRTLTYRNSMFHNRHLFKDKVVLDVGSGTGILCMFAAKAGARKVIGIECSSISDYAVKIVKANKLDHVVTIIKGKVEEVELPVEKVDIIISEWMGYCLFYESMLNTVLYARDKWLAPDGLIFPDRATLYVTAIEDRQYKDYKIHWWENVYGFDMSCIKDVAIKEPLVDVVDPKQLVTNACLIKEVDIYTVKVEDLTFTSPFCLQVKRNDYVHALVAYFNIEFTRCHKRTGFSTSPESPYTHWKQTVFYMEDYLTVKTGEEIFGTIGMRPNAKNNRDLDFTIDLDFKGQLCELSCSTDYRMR
row,SMILES,IC50 [nM]
1,"CNCCN(C)Cc1c[nH]nc1C1CCC(OCCCOC)C2(CCCC2)C1 (mixture of isomers) [compound 19, N1-((3-(10-(3-methoxypropoxy)spiro[4.5]decan-7-yl)-1H-pyrazol-4-yl)methyl)-N1,N2-dimethylethane-1,2-diamine dihydrochloride]",11.1
2,"CNCCN(C)Cc1c[nH]nc1[C@@H]1CC[C@@H](OCCCOC)C2(CCCC2)C1 (racemic) [compound 26, N1-((3-((7R,10R)-10-(3-methoxypropoxy)spiro[4.5]decan-7-yl)-1H-pyrazol-4-yl)methyl)-N1,N2-dimethylethane-1,2-diamine]",14.3
3,"CNCCN(C)Cc1c[nH]nc1[C@@H]1CC[C@H](OCCCOC)C2(CCCC2)C1 (racemic) [compound 27, N1-((3-((7R,10S)-10-(3-methoxypropoxy)spiro[4.5]decan-7-yl)-1H-pyrazol-4-yl)methyl)-N1,N2-dimethylethane-1,2-diamine]",6.58
4,CNCCN(C)Cc1c[nH]nc1C1CC(COCC2CC2)CC(COCC2CC2)C1 (centres unmarked) [compound 2],69.2
5,CNCCN(C)Cc1c[nH]nc1[C@H]1CC[C@@]2(CCCCO2)CC1 [compound 3],13.6
6,"CNCCN(C)Cc1c[nH]nc1[C@H]1CC[C@]2(CCCOC2)CC1 [compound 4, N1-((3-((6s,9s)-2-oxaspiro[5.5]undecan-9-yl)-1H-pyrazol-4-yl)methyl)-N1,N2-dimethylethane-1,2-diamine]",9.43
7,"CNCCN(C)Cc1c[nH]nc1[C@H]1CC[C@@]2(CCCOC2)CC1 [compound 5, N1-((3-((6r,9r)-2-oxaspiro[5.5]undecan-9-yl)-1H-pyrazol-4-yl)methyl)-N1,N2-dimethylethane-1,2-diamine]",11.7
8,CNCCN(C)Cc1c[nH]nc1C1CCC(COCC(C)C)(COCC(C)C)CC1 [compound 6],16.7
9,"CNCCN(C)Cc1c[nH]nc1C1CCC2(CCC(OC)CC2)CC1 (centres unmarked) [compound 9, N1-((3-(9-methoxyspiro[5.5]undecan-3-yl)-1H-pyrazol-4-yl)methyl)-N1,N2-dimethylethane-1,2-diamine]",8.7
10,CNCCN(C)Cc1c[nH]nc1[C@H]1CC[C@]2(CCN(CCC(C)C)C2=O)CC1 [compound 10],55
11,"CNCCN(C)Cc1c[nH]nc1[C@H]1CC[C@@]2(CCN(CCC(C)C)C2=O)CC1 [compound 11, (5r,8r)-2-isopentyl-8-(4-((methyl(2-(methylamino)ethyl)amino)methyl)-1H-pyrazol-3-yl)-2-azaspiro[4.5]decan-1-one]",6.55
12,CNCCN(C)Cc1c[nH]nc1C1C[C@@H](C(=O)N(C)CC(C)C)C(C)(C)[C@H](C(=O)N(C)CC(C)C)C1 (some centres unmarked) [compound 12],> 10000
13,CNCCN(C)Cc1c[nH]nc1C1C[C@H](C(=O)NCCOC)C(C)(C)[C@H](C(=O)NCCOC)C1 (some centres unmarked) [compound 13],> 10000
14,"CCN(C)C(=O)C1CC(c2n[nH]cc2CN(C)CCNC)CC(C(=O)NCCC(C)C)C1(C)C (centres unmarked) [compound 14, N1-ethyl-N3-isopentyl-N1,2,2-trimethyl-5-(4-((methyl(2-(methylamino)ethyl)amino)methyl)-1H-pyrazol-3-yl)cyclohexane-1,3-dicarboxamide]",> 10000
15,"CNCCN(C)Cc1c[nH]nc1C1=CCC(CF)(CF)CC1 [compound 15, N-((3-(4,4-bis(fluoromethyl)cyclohex-1-en-1-yl)-1H-pyrazol-4-yl)methyl)-N1,N2-dimethylethane-1,2-diamine]",5.6
16,"CNCCN(C)Cc1c[nH]nc1C1=CCC(COCC(F)(F)F)CC1 (centres unmarked) [compound 16, N1,N2-dimethyl-N1-((3-(4-((2,2,2-trifluoroethoxy)methyl)cyclohex-1-en-1-yl)-1H-pyrazol-4-yl)methyl)ethane-1,2-diamine]",11.2
17,"CNCCN(C)Cc1c[nH]nc1C1CCC(C)(C)[C@H](OCC(C)C)C1 (stereo partly drawn) [compound 20, ({3-[(3R)-4,4-dimethyl-3-(2-methylpropoxy)cyclohexyl]-1H-pyrazol-4-yl}methyl)(methyl)[2-(methylamino)ethyl]amine]",11
18,"CCC1CC(c2n[nH]cc2CN(C)CCNC)CC(C(=O)NCCOC)C1(C)C (centres unmarked) [compound 21, 3-ethyl-N-(2-methoxyethyl)-2,2-dimethyl-5-[4-([methyl[2-(methylamino)ethyl]amino]methyl)-1H-pyrazol-3-yl]cyclohexane-1-carboxamide dihydrochloride]",246
19,"CCC1(CC)CC2(CCC(c3n[nH]cc3CN(C)CCNC)CC2)N(C)C1=O (centres unmarked) [compound 22, 3,3-diethyl-1-methyl-8-(4-((methyl(2-(methylamino)ethyl)amino)methyl)-1H-pyrazol-3-yl)-1-azaspiro[4.5]decan-2-one]",13.1
20,"CNCCN(C)Cc1c[nH]nc1[C@H]1CC[C@@H](COCC(F)(F)F)CC1 [compound 23, N1,N2-dimethyl-N1-((3-((1s,4s)-4-((2,2,2-trifluoroethoxy)methyl)cyclohexyl)-1H-pyrazol-4-yl)methyl)ethane-1,2-diamine]",50.8
21,"CNCCN(C)Cc1c[nH]nc1[C@H]1CC[C@H](COCC(F)(F)F)CC1 [compound 24, N1,N2-dimethyl-N1-((3-((1r,4r)-4-((2,2,2-trifluoroethoxy)methyl)cyclohexyl)-1H-pyrazol-4-yl)methyl)ethane-1,2-diamine]",12.4
22,CNCCN(C)Cc1cn(C)nc1C1CCC(C)(C)[C@@H](C(=O)NCC(C)C)C1 (some centres unmarked) [compound 25],702
23,"CNCCNCc1c[nH]nc1[C@H]1CC[C@@]2(CC1)CC(C)(C)CO2 [compound 28, N1-((3-((5s,8s)-3,3-dimethyl-1-oxaspiro[4.5]decan-8-yl)-1H-pyrazol-4-yl)methyl)-N2-methylethane-1,2-diamine]",13.2
24,"CNCCNCc1c[nH]nc1[C@H]1CC[C@]2(CC1)CC(C)(C)CO2 [compound 29, N1-((3-((5r,8r)-3,3-dimethyl-1-oxaspiro[4.5]decan-8-yl)-1H-pyrazol-4-yl)methyl)-N2-methylethane-1,2-diamine]",193
25,"CNCCN(C)Cc1c[nH]nc1C1CCC(C)(C)[C@H](COCCCOC)C1 (stereo partly drawn) [compound 30, {2-[({3-[(3R)-3-[(3-methoxypropoxy)methyl]-4,4-dimethylcyclohexyl]-1H-pyrazol-4-yl}methyl)(methyl)amino]ethyl}(methyl)amine]",21
26,"CCOC[C@@H]1CC(c2n[nH]cc2CN(C)CCNC)CCC1(C)C (stereo partly drawn) [compound 31, {2-[({3-[(3R)-3-(ethoxymethyl)-4,4-dimethylcyclohexyl]-1H-pyrazol-4-yl}methyl)(methyl)amino]ethyl}(methyl)amine]",25
27,"CNCCN(C)Cc1c[nH]nc1C1CCC(C)(C)[C@H](CO)C1 (stereo partly drawn) [compound 32, [(1R)-2,2-dimethyl-5-[4-({methyl[2-(methylamino)ethyl]amino}methyl)-1H-pyrazol-3-yl]cyclohexyl]methanol]",22.1
28,"CCC1(CC)C[C@]2(CC[C@H](c3n[nH]cc3CN(C)CCNC)CC2)OC1=O [compound 33, (5s,8s)-3,3-diethyl-8-(4-((methyl(2-(methylamino)ethyl)amino)methyl)-1H-pyrazol-3-yl)-1-oxaspiro[4.5]decan-2-one]",13.2
29,"CCC1(CC)C[C@]2(CC[C@@H](c3n[nH]cc3CN(C)CCNC)CC2)OC1=O [compound 34, (5r,8r)-3,3-diethyl-8-(4-((methyl(2-(methylamino)ethyl)amino)methyl)-1H-pyrazol-3-yl)-1-oxaspiro[4.5]decan-2-one]",15.2

# From patent US20170291905A1, “ARGININE […] INHIBITORS AND USES THEREOF” (Epizyme, Inc., priority 2014, published 2017)
